According to patent US20170112748A1, “N-ACYLPEPTIDE DERIVATIVES AND THEIR USES” (NeoStrata Company, Inc., priority 2012, published 2017):

What was measured:
Assay type in all cases: in vivo, human
[1] = summary of test results in volunteer subjects, efficacy grades; conditions: efficacy grade
Source text: Subject 1. Person had multiple red and itchy inflammation, dermatitis, or eczema lesions, which were resistant to conventional treatments including corticosteroids. Subject 2. Person had small red and itchy lesions which were resistant to topical corticosteroid treatment. Subject 3. Person had multiple red and itchy inflammation, dermatitis, or eczema lesions over the body for many years, which were resistant to conventional treatments including corticosteroids. Subject 4. Person had red and itchy inflammation, dermatitis, or eczema lesions for many years, which were resistant to topical corticosteroid treatment. Subject 5. Person had early stage of aging related skin changes on both forearms as indicated by age spots and wrinkled skin caused by solar damage. Subject 6. Person had age spots, keratoses and wrinkles on both forearms caused by intrinsic and extrinsic aging. Subject 7. Person had age spots, and wrinkles on both forearms caused by intrinsic and extrinsic aging. Subject 8. Person had osteoarthritis of both knees with inflammation and pain for more than 4 years, and had only mild transitory relief from conventional treatments. Subject 9. Person had sensitive skin with inflammatory lesions on the body. Subject 12. Person had dermatitis and inflammatory lesions on the left palm. Subject 14. Person had multiple age spots including lentigines and keratosis on their face. Subject 15. Person had psorisis Subject 16. Person had sensitive skin and eczema for more than 40 years
In another embodiment, the volunteer subject topically applied the test compositions containing N-acylpeptide derivatives of the present invention on involved skin or lesions once or twice daily for several weeks or until the involved lesions completely cleared and clinically changed to normal skin. As a control study, the subject also topically applied a vehicle control composition on the involved skin or lesions twice daily for the same period.
In yet another embodiment, the volunteer subject topically applied once or twice daily the test compositions containing N-acylpeptide derivatives of the present invention on the skin site above arthritic joints or painful muscles to provide therapeutic effects for the systemic disorders via topical administration.
In yet another embodiment, the volunteer subject injected intra-articularly into a knee joint a test composition containing a N-acylpeptide derivative of the present invention to improve and reduce arthritic inflammation and pain of the joint.
Some test results are summarized as follows.
DK: Disturbed keratinization AG: Aging related changes of skin, nail and hair DI: Deranged immune disorders and inflammation ND: Nerve disorders CA: Tumors and/or cancers

[2] = topical treatment of chronic dermatoses with scaly skin and itch, clinical evaluation; conditions: Example 11: subject
Source text: The subject topically applied twice daily a pentapeptide derivative, N-Ac-L-Ala-L-Leu-L-Lys-L-His-L-Arg-NH2 (SEQ ID NO: 51) 0.2% (w/v) in WEP442, pH 3.4, as prepared in Example 2. […] The treated skin had 80-90% improvement as judged by clinical evaluation.

[3] = topical treatment of plaque psoriasis, clinical evaluation; conditions: Example 13: subject, 0.2% (w/w) in cream twice daily, 3 weeks
Source text: A subject, having plaque psoriasis, topically applied twice daily N-Ac-L-Tyr-L-Tyr-L-Tyr-NH2 0.2% (w/w) in cream to plaque lesions for 3 weeks. The treated lesions started to improve after a few days of topical application. […] The treated lesions had 40-50% improvement as judged by clinical evaluation.

[4] = skin plump / skin thickness test after topical application, caliper measurement
Method: In one of the studies related to skin changes associated with aging, skin thickness was measured by micrometer calipers as follows.
The skin was grasped with a 2×6 cm metal hinge: the internal faces of which were coated with emery cloth to prevent slippage, and manually squeezed to threshold subject discomfort. Combined thickness of two whole-skin layers including thickness of the two hinge leaves was measured with micrometer calipers. Thickness of the two hinge leaves was subtracted to determine the actual thickness of two whole-skin layers. Triplicate measurements on treated sites were done and an average number was used for calculation of the skin thickness.
In other studies, test sites of skin 17 mm in diameter were used, the circular sites were marked with permanent ink. Intervening control sites were also 17 mm in diameter. Thickness of skin of all sites was measured directly by means of an electronic digital caliper. In this instance the jaws of the caliper were opened to 17 mm, applied with pressure to the skin sites and then closed to firm tightness. Thickness of skin was then read off the screen of the calipers. Measurements of all sites were made in triplicates. […]

[5] = topical treatment of chronic inflammation, erythema, eczema with thick scales and itch, clinical evaluation; conditions: Example 10: subject, -NH2 0.3% and -OEt 0.5% (w/v) in WEP442
Source text: The involved skin was divided into two lesions for testing. The subject topically applied twice daily to one lesion, N-Ac-L-Tyr-L-Tyr-L-Tyr-NH2 0.3% (w/v) in WEP442, pH 5.9 solution composition, prepared according to Example 2, and to second lesion, N-Ac-L-Tyr-L-Tyr-L-Tyr-OEt 0.5% (w/v) in WEP 442, pH 6.0, prepared according to Example 2. […] The treated skin had 90-95% improvement as judged by clinical evaluation.

[6] = appetite for food after topical application on forehead; conditions: Example 12: subject, 0.3% (w/v) in WEP442 once on forehead one hour before dinner
Method: A subject, having normal and regular eating habit, topically applied once N-Ac-L-Tyr-L-Tyr-L-Tyr-NH2, 0.3% (w/v) in WEP442, pH 5.9 prepared according to Example 2 on their forehead one hour before the regular dinner time. After about 50-60 minutes of the topical application, the subject strated to feel loss of appetite for food.

[7] = topical treatment of bilateral inter-metacarpal atrophy of hands; conditions: Example 23: subject, 1% (w/v) in WEP442 twice daily after the first course
Source text: A subject had bilateral inter-metacarpal atrophy of both hands with certain restrictions of hand movements. The subject topically applied two to three times daily N-Ac-L-Tyr-L-Tyr-L-Tyr-OEt, 2% (w/v) in EP73 on the back of their left hand, and vehicle control EP73 on the back of their right hand for three weeks.
The subject now, topically applied twice daily N-Ac-L-Tyr-L-Tyr-L-Tyr-NH2, 1% (w/v) in WEP442 on the back of their left hand as a mantenace therapy.

[8] = anxiety, stress and mood disorders after topical application on forehead; conditions: Example 16: subject, 0.2% in WEP442 on forehead, after two hours
Source text: A subject had mild forms of anxiety, stress and mood disorders which provoked restlessness, lack of concentration, and mild depression. […] The subject then topically applied N-Ac-L-Val-L-Tyr-L-Tyr-NH2, 0.2% in WEP442 on their forehead.

For “N-Ac-L-Ala-L-Leu-L-Lys-L-His-L-Arg-NH2 (Ac-ALKHR-NH2)”, the “AG: Aging related changes of skin, nail and hair” value (shortened to “AG: Aging related changes of skin”) [1] was 3+ (3+: 75% Efficacy), the “DI: Deranged immune disorders and inflammation” value [1] was 4+ (4+: 95-100% Efficacy) and the “DK: Disturbed keratinization” value [1] was 3+ (3+: 75% Efficacy). The “ND: Nerve disorders” value [1] was 3+ (3+: 75% Efficacy), the itch ([2]; 0.2% (w/v) in WEP442 pH 3.4 topical) was “stopped within a few minutes” and the “improvement as judged by clinical evaluation” value ([2]; right leg, 0.2% (w/v) in WEP442 pH 3.4 twice daily, 2 weeks) was 80-90%.

In the case of N-Ac-L-Arg-L-Arg-L-Arg-NH2, the “AG: Aging related changes of skin” value [1] is reported as 2+ (2+: 50% Efficacy), the “DI: Deranged immune disorders and inflammation” value [1] is reported as 2+ (2+: 50% Efficacy) and the “DK: Disturbed keratinization” value [1] is reported as 2+ (2+: 50% Efficacy). The “ND: Nerve disorders” value [1] was 2+ (2+: 50% Efficacy).

In the case of N-Ac-L-Ser-L-Ser-L-Ser-NH2, the “AG: Aging related changes of skin” value [1] is reported as 2+ (2+: 50% Efficacy), the “DI: Deranged immune disorders and inflammation” value [1] is reported as 2+ (2+: 50% Efficacy) and the “DK: Disturbed keratinization” value [1] is reported as 2+ (2+: 50% Efficacy). The “ND: Nerve disorders” value [1] was 2+ (2+: 50% Efficacy).

For N-Ac-L-Tyr-L-Tyr-L-Tyr-NH2, the “improvement of treated lesions as judged by clinical evaluation” value [3] was 40-50%, the “AG: Aging related changes of skin” value [1] was 4+ (4+: 95-100% Efficacy) and the “DI: Deranged immune disorders and inflammation” value [1] was 4+ (4+: 95-100% Efficacy). For the same substance, the “DK: Disturbed keratinization” value [1] was 4+ (4+: 95-100% Efficacy), the “ND: Nerve disorders” value [1] was 4+ (4+: 95-100% Efficacy) and the “increase in skin thickness” value ([4]; Example 8: subject, severe photodamage, right wrist distal, 0.5% (w/v) in WEP721 three times daily, 7 days) was 5-10%. For the same substance, the increased skin thickness ([4]; Example 20: subject, photoaging forearms, 0.8% (w/v) in WEP442 three times daily, four weeks) was ~15%, the increased skin thickness ([4]; Example 20: subject, photoaging forearms, 1% (w/v) in WEP442 three times daily, four weeks) was ~28% and the increased skin thickness ([4]; Example 21: subject, sun damaged forearms, 1% (w/v) in WEP442 three times daily, one week) was ~24%. The itch [5] was “stopped within a few minutes”, the “amount of food eaten at dinner” value [6] was “only half the amount of food they usually would consume” and the “time after topical application until loss of appetite for food was felt” value [6] was 50 to 60 min. For the same substance, the “inter-metacarpal atrophy of left hand, maintenance therapy” value [7] was “continued to improve with no signs of inter-metacarpal atrophy”.

For N-Ac-L-Val-L-Tyr-L-Tyr-NH2, the “AG: Aging related changes of skin” value [1] was 3+ (3+: 75% Efficacy), the “DI: Deranged immune disorders and inflammation” value [1] was 2+ (2+: 50% Efficacy) and the “DK: Disturbed keratinization” value [1] was 2+ (2+: 50% Efficacy). For the same substance, the “ND: Nerve disorders” value [1] was 4+ (4+: 95-100% Efficacy) and the “effect on anxiety, stress and mood disorders” value [8] was “anxiety, stress and mood disorders started to disappear”.

In the case of N-Ac-L-Val-L-Val-L-Ala-NH2, the “AG: Aging related changes of skin” value [1] is reported as 2+ (2+: 50% Efficacy), the “DI: Deranged immune disorders and inflammation” value [1] is reported as 2+ (2+: 50% Efficacy) and the “DK: Disturbed keratinization” value [1] is reported as 2+ (2+: 50% Efficacy). For the same substance, the “ND: Nerve disorders” value [1] was 3+ (3+: 75% Efficacy).

In the case of “N-Bz-L-Ala-L-Leu-L-Lys-L-His-L-Arg-NH2 (ALKHR; HELM PEPTIDE1{[O=C(c1ccccc1)[*:2]].A.L.K.H.R.[am]}$$$$V2.0; SMILES CC(C)C[C@H](NC(=O)[C@H](C)NC(=O)c1ccccc1)C(=O)N[C@@H](CCCCN)C(=O)N[C@@H](Cc1c[nH]cn1)C(=O)N[C@@H](CCCNC(=N)N)C(N)=O)”, the “AG: Aging related changes of skin” value [1] is reported as 4+ (4+: 95-100% Efficacy), the “DI: Deranged immune disorders and inflammation” value [1] is reported as 3+ (3+: 75% Efficacy) and the “DK: Disturbed keratinization” value [1] is reported as 3+ (3+: 75% Efficacy). The “ND: Nerve disorders” value [1] was 2+ (2+: 50% Efficacy).

With “N-Pr-L-Ala-L-Leu-L-Lys-L-His-L-Arg-NH2 (ALKHR; HELM PEPTIDE1{[CCC(=O)[*:2]].A.L.K.H.R.[am]}$$$$V2.0; SMILES CCC(=O)N[C@@H](C)C(=O)N[C@@H](CC(C)C)C(=O)N[C@@H](CCCCN)C(=O)N[C@@H](Cc1c[nH]cn1)C(=O)N[C@@H](CCCNC(=N)N)C(N)=O)” the “AG: Aging related changes of skin” value [1] was 2+ (2+: 50% Efficacy), the “DI: Deranged immune disorders and inflammation” value [1] was 2+ (2+: 50% Efficacy) and the “DK: Disturbed keratinization” value [1] was 2+ (2+: 50% Efficacy). The “ND: Nerve disorders” value [1] was 2+ (2+: 50% Efficacy).
